ChEMBL document CHEMBL1201862, “PubChem BioAssay data set” (2004)
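A five-concentration, 48-hour dose response in 96-well plates underlies each endpoint, interpolated linearly between surrounding concentrations. Here, GI50 denotes the concentration required for 50% inhibition of growth.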 Activity calls are given as the source filed them. No stated cut-off is given here; in the data, active = GI50 up to about 1.1 µM and inactive = higher.

Experiments:
Assay in all cases: DTP human tumour cell line panel, 48 h
[1] = tested on: SK-OV-3
[2] = tested on: SNB-78
[3] = tested on: SF-539
[4] = tested on: SN12C
[5] = tested on: SNB-19
[6] = tested on: M14
[7] = tested on: NCI-H23
[8] = tested on: OVCAR-4
[9] = tested on: KM12
[10] = tested on: HL-60
[11] = tested on: HCT-15
[12] = tested on: A549
[13] = tested on: COLO 205
[14] = tested on: HOP-62
[15] = tested on: UACC-257
[16] = tested on: SNB-75
[17] = tested on: OVCAR-3
[18] = tested on: SR
[19] = tested on: OVCAR-5
[20] = tested on: OVCAR-8
[21] = tested on: SF-268
[22] = tested on: UACC-62
[23] = tested on: SW-620
[24] = tested on: KM-20L2
[25] = tested on: RXF 393
[26] = tested on: LXFL 529
[27] = tested on: HCT-116
[28] = tested on: NCI-H522
[29] = tested on: DMS-114
[30] = tested on: Malme-3M
[31] = tested on: MOLT-4
[32] = tested on: NCI-H460
[33] = tested on: EKVX
[34] = tested on: CAKI-1
[35] = tested on: SK-MEL-2
[36] = tested on: HT-29
[37] = tested on: SF-295
[38] = tested on: 786-0
[39] = tested on: RPMI-8226
[40] = tested on: UO-31
[41] = tested on: SK-MEL-5
[42] = tested on: K562
[43] = tested on: SK-MEL-28
[44] = tested on: DMS-273
[45] = tested on: M19-MEL
[46] = tested on: LOX IMVI
[47] = tested on: U-251
[48] = tested on: CCRF-CEM
[49] = tested on: ACHN
[50] = tested on: XF498
[51] = tested on: TK-10
[52] = tested on: HOP-18
[53] = tested on: NCI-H226
[54] = tested on: IGROV-1
[55] = tested on: HOP-92
[56] = tested on: HCC 2998
[57] = tested on: DLD-1
[58] = tested on: A498

In the case of `c1ccc2c3c([nH]c2c1)C1C2CCCCN2C(c2ccncc2)N1CC3` (centres undefined), the GI50 [1] is reported as 36.6 µM (inactive), the GI50 [2] is reported as 42.8 µM (inactive) and the GI50 [3] is reported as 58.3 µM (inactive). The GI50 [4] was 39.1 µM (inactive), the GI50 [5] was 25.4 µM (inactive) and the GI50 [6] was 34.8 µM (inactive). The GI50 [7] was 34.4 µM (inactive), the GI50 [8] was 61.5 µM (inactive) and the GI50 [9] was 35.9 µM (inactive). For the same compound, the GI50 [10] was 21.5 µM (inactive), the GI50 [11] was 35.5 µM and the GI50 [12] was 32.2 µM (inactive). The GI50 [13] was 35 µM (inactive), the GI50 [14] was 52.5 µM (inactive) and the GI50 [15] was 51.2 µM (inactive). The GI50 [16] was 22.8 µM (inactive), the GI50 [17] was 44.1 µM (inactive) and the GI50 [18] was 33.9 µM (inactive). The GI50 [19] was 35.7 µM (inactive), the GI50 [20] was 38.1 µM (inactive) and the GI50 [21] was > 10 µM (inactive). The GI50 [22] was 36.5 µM (inactive), the GI50 [23] was 33.5 µM (inactive) and the GI50 [24] was 24 µM (inactive). For the same compound, the GI50 [25] was 29.3 µM (inactive), the GI50 [26] was 38.1 µM (inactive) and the GI50 [27] was 35 µM (inactive). The GI50 [28] was 39.2 µM (inactive), the GI50 [29] was 27.2 µM (inactive) and the GI50 [30] was 34 µM (inactive). The GI50 [31] was 43.3 µM (inactive), the GI50 [32] was 29.6 µM (inactive) and the GI50 [33] was 54.3 µM (inactive). For the same compound, the GI50 [34] was 34.4 µM (inactive), the GI50 [35] was 39.4 µM (inactive) and the GI50 [36] was 33.1 µM (inactive). For the same compound, the GI50 [37] was 38.9 µM (inactive), the GI50 [38] was 63.4 µM (inactive) and the GI50 [39] was 27.4 µM (inactive). The GI50 [40] was 11.5 µM (inactive), the GI50 [41] was 43 µM (inactive) and the GI50 [42] was 32.1 µM (inactive). For the same compound, the GI50 [43] was 39.9 µM (inactive), the GI50 [44] was 28.6 µM (inactive) and the GI50 [45] was 37.2 µM (inactive). For the same compound, the GI50 [46] was 37.2 µM (inactive), the GI50 [47] was 39.9 µM (inactive) and the GI50 [48] was 33 µM (inactive). The GI50 [49] was 46.1 µM (inactive) and the GI50 [50] was 23.6 µM (inactive).

With `CN(C)/N=N/c1ccccc1` the GI50 [1] was > 100 µM (inactive), the GI50 [3] was > 100 µM (inactive) and the GI50 [4] was > 100 µM (inactive). The GI50 [5] was > 100 µM (inactive), the GI50 [51] was > 100 µM (inactive) and the GI50 [6] was > 100 µM (inactive). For the same compound, the GI50 [7] was > 100 µM (inactive), the GI50 [8] was > 100 µM (inactive) and the GI50 [9] was 12.7 µM (inactive). The GI50 [10] was > 100 µM (inactive), the GI50 [11] was 16.7 µM and the GI50 [52] was > 100 µM (inactive). For the same compound, the GI50 [53] was > 100 µM (inactive), the GI50 [54] was 34.3 µM (inactive) and the GI50 [12] was 68.5 µM (inactive). For the same compound, the GI50 [13] was > 100 µM (inactive), the GI50 [55] was > 100 µM (inactive) and the GI50 [16] was > 100 µM (inactive). The GI50 [17] was > 100 µM (inactive), the GI50 [56] was 38.1 µM (inactive) and the GI50 [18] was > 100 µM (inactive). The GI50 [20] was > 100 µM (inactive), the GI50 [21] was > 100 µM (inactive) and the GI50 [23] was > 100 µM (inactive). The GI50 [24] was 42.3 µM (inactive), the GI50 [25] was > 100 µM (inactive) and the GI50 [26] was > 100 µM (inactive). The GI50 [27] was > 100 µM (inactive), the GI50 [28] was 21.7 µM (inactive) and the GI50 [29] was 31.6 µM (inactive). The GI50 [30] was > 100 µM (inactive), the GI50 [31] was > 100 µM (inactive) and the GI50 [32] was 98.9 µM (inactive). For the same compound, the GI50 [33] was > 100 µM (inactive), the GI50 [34] was > 100 µM (inactive) and the GI50 [35] was > 100 µM (inactive). The GI50 [36] was > 100 µM (inactive), the GI50 [37] was 1.35 µM (inactive) and the GI50 [38] was > 100 µM (inactive). For the same compound, the GI50 [39] was > 100 µM (inactive), the GI50 [40] was 26.8 µM (inactive) and the GI50 [41] was > 100 µM (inactive). The GI50 [42] was > 100 µM (inactive), the GI50 [57] was > 100 µM (inactive) and the GI50 [43] was > 100 µM (inactive). For the same compound, the GI50 [44] was > 100 µM (inactive), the GI50 [45] was 43.4 µM (inactive) and the GI50 [47] was > 100 µM (inactive). The GI50 [48] was 22 µM (inactive), the GI50 [49] was 25.9 µM (inactive) and the GI50 [50] was > 100 µM (inactive). For the same compound, the GI50 [58] was > 100 µM (inactive).

For `CCCC(=O)Oc1ccc(/C=N/NC(N)=S)nc1`, the GI50 [1] was > 100 µM (inactive), the GI50 [2] was > 100 µM (inactive) and the GI50 [3] was 36.5 µM (inactive). The GI50 [4] was > 100 µM (inactive), the GI50 [5] was > 100 µM (inactive) and the GI50 [51] was > 100 µM (inactive). The GI50 [6] was 98.6 µM (inactive), the GI50 [7] was > 100 µM (inactive) and the GI50 [8] was > 100 µM (inactive). The GI50 [9] was > 100 µM (inactive), the GI50 [10] was 45.1 µM (inactive) and the GI50 [11] was greater than 100 µM. The GI50 [52] was > 100 µM (inactive), the GI50 [53] was > 100 µM (inactive) and the GI50 [54] was > 100 µM (inactive). The GI50 [12] was > 100 µM (inactive), the GI50 [13] was > 100 µM (inactive) and the GI50 [14] was > 100 µM (inactive). For the same compound, the GI50 [55] was > 100 µM (inactive), the GI50 [15] was > 100 µM (inactive) and the GI50 [16] was > 100 µM (inactive). For the same compound, the GI50 [17] was > 100 µM (inactive), the GI50 [56] was > 100 µM (inactive) and the GI50 [18] was 30 µM (inactive). For the same compound, the GI50 [19] was > 100 µM (inactive), the GI50 [20] was 41.8 µM (inactive) and the GI50 [21] was 60 µM (inactive). For the same compound, the GI50 [22] was 64.1 µM (inactive), the GI50 [23] was > 100 µM (inactive) and the GI50 [24] was > 100 µM (inactive). For the same compound, the GI50 [25] was > 100 µM (inactive), the GI50 [26] was > 100 µM (inactive) and the GI50 [27] was > 100 µM (inactive). For the same compound, the GI50 [28] was 69 µM (inactive), the GI50 [29] was 38.2 µM (inactive) and the GI50 [30] was > 100 µM (inactive). The GI50 [31] was 46.8 µM (inactive), the GI50 [32] was > 100 µM (inactive) and the GI50 [33] was > 100 µM (inactive). The GI50 [34] was > 100 µM (inactive), the GI50 [35] was > 100 µM (inactive) and the GI50 [36] was > 100 µM (inactive). For the same compound, the GI50 [37] was > 100 µM (inactive), the GI50 [38] was 37 µM (inactive) and the GI50 [39] was > 100 µM (inactive). The GI50 [40] was 60.1 µM (inactive), the GI50 [41] was > 100 µM (inactive) and the GI50 [42] was > 100 µM (inactive). For the same compound, the GI50 [57] was > 100 µM (inactive), the GI50 [43] was > 100 µM (inactive) and the GI50 [44] was > 100 µM (inactive). The GI50 [45] was > 100 µM (inactive), the GI50 [46] was 54.3 µM (inactive) and the GI50 [47] was > 100 µM (inactive). The GI50 [48] was 25.5 µM (inactive), the GI50 [49] was 35.6 µM (inactive) and the GI50 [58] was > 100 µM (inactive).
